Source: article PMC4457826 (PLoS Pathogens, 2015)

Experiments:
USP7-NTD = assay: Fluorescence polarization, USP7-NTD; type: binding, human; conditions: FITC peptide 40 nM, protein up to 200 μM
Protocol: (§1) USP7 proteins were titrated (0 to 200 μM) with N-terminally labeled FITC-ICP0, FITC-GMPS or FITC-UHRF1 peptides (synthesized by CanPeptide, 40 nM) in 0.01% Triton X-100, 150 mM NaCl, 20 mM Tris pH 7.5. Polarized emission of FITC-ICP0 or FITC-GMPS or FITC-UHRF1 was measured with a Synergy H4 Hybrid Multi-Mode Microplate Reader (BioTek) with the excitation wavelength set at 485 nm and the emission wavelength set at 528 nm. The competition binding assay was performed with a fixed USP7-CTD concentration (8 μM), 40nM FITC-UHRF1 and increasing concentrations of unlabeled ICP0 (0 to 2500 μM). The polarization data were plotted and analyzed using GraphPad Prism version 5.0 to calculate dissociation (KD) and inhibition (Ki) constants. These assays were repeated at least 3 times and used to calculate the average and standard deviation.

USP7 Ubl345 = assay: Fluorescence polarization, Ubl345; type: binding, human; conditions: FITC peptide 40 nM, protein up to 200 μM
Protocol: as §1

USP7-CTD = biological target: T1, USP7-CTD (Homo sapiens, UniProt Q93009); assay: Competition binding assay (fluorescence polarization), FITC-UHRF1 displacement; conditions: USP7-CTD 8 μM, FITC-UHRF1 40 nM, unlabeled ICP0 0 to 2500 μM
T1 construct: USP7-CTD (535–1102); His tag (inferred from nickel-NTA purification; vector p15TV-L); made in house; host or cells: E. coli BL21(DE3)mgk
Protocol: Given the importance of the KxxxK motif in ICP0 and GMPS for USP7-CTD binding, we examined the UHRF1 sequence for such a motif and identified ^642[…]^649 (Fig 4A). […] The saturation curve is shown in S3 Fig. A competitive binding assay was used to establish whether the UHRF1 and ICP0 peptides were competing for the same binding site on Ubl2. This assay was performed by measuring the fluorescence polarization with increasing amounts of unlabeled ICP0 while keeping both USP7-CTD and FITC-UHRF1 constant. […] This competition was confirmed by the competition binding experiment shown in S3 Fig.
as §1, with “These assays were repeated at least 3 times and used to calculate the average and standard deviation.” left out

T1 sequence (Q93009 535-1102): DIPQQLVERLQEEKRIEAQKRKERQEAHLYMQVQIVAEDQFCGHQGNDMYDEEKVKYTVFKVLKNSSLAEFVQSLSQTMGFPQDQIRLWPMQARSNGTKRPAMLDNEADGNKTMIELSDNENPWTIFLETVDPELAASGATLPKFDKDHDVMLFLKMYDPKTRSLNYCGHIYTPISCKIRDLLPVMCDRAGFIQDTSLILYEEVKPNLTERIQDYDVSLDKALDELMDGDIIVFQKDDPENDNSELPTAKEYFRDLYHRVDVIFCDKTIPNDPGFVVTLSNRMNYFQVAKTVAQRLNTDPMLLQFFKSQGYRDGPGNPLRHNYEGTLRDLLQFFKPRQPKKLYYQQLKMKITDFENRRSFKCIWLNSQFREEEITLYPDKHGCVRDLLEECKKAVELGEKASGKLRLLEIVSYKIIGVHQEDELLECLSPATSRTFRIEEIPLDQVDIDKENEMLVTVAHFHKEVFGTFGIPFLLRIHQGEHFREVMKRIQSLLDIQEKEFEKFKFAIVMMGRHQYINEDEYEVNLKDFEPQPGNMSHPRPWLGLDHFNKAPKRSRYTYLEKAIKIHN

With `C[C@H](NC(=O)[C@H](CS)NC(=O)[C@H](CCCCN)NC(=O)[C@H](CCCNC(=N)N)NC(=O)[C@@H]1CCCN1C(=O)CNC(=O)[C@H](CCCNC(=N)N)NC(=O)[C@@H]1CCCN1)C(=O)N[C@@H](CCCNC(=N)N)C(=O)N[C@@H](CCCCN)C(=O)N[C@H](C(=O)N[C@@H](CCCNC(=N)N)C(=O)N[C@@H](Cc1c[nH]cn1)C(=O)O)[C@@H](C)O` [ICP0 peptide] as the molecule, how does the “polarization with USP7-NTD” value (USP7-NTD) read?
Its value is “did not show any polarization”.

And the “polarization with Ubl345” value (USP7 Ubl345)?
The value was “did not show any polarization”.

And the “competition with UHRF1 peptide for binding to Ubl2” value (USP7-CTD)?
Its value is “readily competes with the UHRF1 peptide for binding to Ubl2”.
